Tests used:
[1] = test system: calf thymus histones; assay: Inhibition of histone killing of HMEC (flow cytometry, Calcein-AM/PI); assay type: cell-based; conditions: for % histone killing ± SEM: compounds at 50 μg/ml, calf thymus histones 400 μg/ml; for % histone killing ± SEM / inhibitory activity on histone toxicity (in words): HMEC; for inhibitory activity on histone toxicity (in words): Table 1 discussion; for inhibition of cytotoxic effects of histones for HMEC: histones 400 μg/ml
Method: (§1) Different concentrations of calf thymus histones were initially assessed for their toxicity for human umbilical vein endothelial cells (HUVEC) and human microvascular endothelial cells (HMEC). Suspensions of HUVEC/HMEC in Medium199/20% fetal calf serum (FCS) were dispensed into each well of a 96 well plate (1×10^5 cells/well in 50 μl of medium). Calf thymus histones (50 μl/well in M199/20% FCS) were then added to give a final concentration of 100-800 μg/ml followed by 25 μl/well of Calcein-AM in PBS (final concentration 0.04 μM) and 25 propidium iodide (PI) in PBS (final concentration 2.5 μg/ml). Each 96 well plate was incubated at 37° C. for 60 min in a 5% CO2 incubator, placed on ice and the contents of each well analysed by flow cytometry for viable and dead cells. Viable cells were detected as Calcein-AM-bright and PI-dim and dead cells as Calcein-AM-dim and PI-bright. FIG. 1 depicts a typical viability assay comparing HUVEC cultured alone (9.15% dead, 78.6% viable) with HUVEC cultured for 60 min with 200 μg/ml of calf thymus histones (50.4% dead, 35.6% viable). The toxicity of calf thymus histones for HUVEC and HMEC is shown in detail in FIG. 2, with histone toxicity for HUVEC (FIG. 2A) and HMEC (FIG. 2B) being highly concentration dependent, although HMEC were more resistant to histone toxicity than HUVEC. Thus, at 100 μg/ml histones killed 15-20% of HUVEC but had no effect on HMEC viability, whereas at 800 μg/ml histones killed >85% of HUVEC and ˜55% of HMEC (FIG. 1). In subsequent inhibition experiments calf thymus histones were used at 200 μg/ml for HUVEC and 400 μg/ml for HMEC, these concentrations resulting in ˜50% killing of both populations of endothelial cells.
In inhibition experiments the inhibitor (final concentration ranging from 1.6-100 μg/ml) was mixed with calf thymus histones (final concentration 200 or 400 μg/ml) prior to the addition of HUVEC/HMEC, Calcein-AM and PI to each well.
Using HMEC as the endothelial cell target similar inhibitory effects of maltotriose sulfate (FIG. 6) and the other sulfated oligosaccharides (Table 1) on histone toxicity was observed. In fact, a more detailed analysis of the inhibitory activity of a range of polyanions on histone toxicity, using HMEC as the target endothelial cell, is shown in Table 1.

[2] = test system: radiolabelled histones; assay: Blockade of radiolabelled histone accumulation in rabbit lungs (gamma scintigraphy); assay type: in vivo; conditions: 15 mg/kg intravenously 15 minutes before radiolabel
[3] = test system: lipopolysaccharide (LPS)-induced mouse model of sepsis; assay: LPS-induced mouse model of sepsis; assay type: in vivo
Method: A study was conducted to assess in vivo efficacy of test articles 1 (maltotriose sulfate; TA1), 2 (cellobiose sulfate; TA2), and 3 (heparin; TA3) in a lipopolysaccharide (LPS)-induced mouse model of sepsis. Endotoxemia was induced by intraperitoneal (i.p.) injection with LPS on day 1. Test articles were co-administered i.p. on day 1, and then dosed daily i.p. for an additional 2 days.

[4] = test system: calf thymus histones; assay: Inhibition of histone cytotoxicity for HUVEC (flow cytometry, Calcein-AM/PI); assay type: cell-based; conditions: inhibitor 1.6-100 μg/ml; histones 200 μg/ml
Method: as §1, with “Thus, at 100 μg/ml histones killed 15-20% of HUVEC but had no effect on HMEC viability, whereas at 800 μg/ml histones killed >85% of HUVEC and ˜55% of HMEC (FIG. 1). In subsequent inhibition experiments calf thymus histones were used at 200 μg/ml for HUVEC and 400 μg/ml for HMEC, these concentrations resulting in ˜50% killing of both populations of endothelial cells.” left out

[5] = 15 mg/kg i.p. daily x3, LPS 50 mg/kg
[6] = 15 mg/kg i.p. daily x3, with LPS
[7] = 100 mg/kg i.p. daily x3, with LPS

Molecule | % histone killing ± SEM [1] [%] | inhibitory activity on histone toxicity (in words) [1] | also measured
Isomaltotriose sulfate [Isomaltotriose SO4] | 49.5 ± 5.4 |  | 
Carboxylated β-cyclodextrin | 105.8 ± 19.9 | not | 
cellobiose sulfate [Cellobiose SO4] |  | potent inhibitor | accumulation of radiolabelled histones in the lung [2]: blocked; survival (Kaplan-Meier) [3, 5]: extended survival; tolerability [3, 6]: well tolerated; survival (Kaplan-Meier) ([3]; 100 mg/kg i.p. daily x3, LPS 50 mg/kg): extended survival; tolerability [3, 7]: well tolerated
maltose sulfate [Maltose SO4] | 77.1 ± 4.7 | weaker inhibitors | inhibitory activity on histone cytotoxicity for HUVEC (in words) [4]: weak inhibitor
O=S(=O)(O)OC[C@H]1O[C@@](COS(=O)(=O)O)(O[C@H]2O[C@H](COS(=O)(=O)O)[C@@H](OS(=O)(=O)O)[C@H](OS(=O)(=O)O)[C@H]2OS(=O)(=O)O)[C@@H](OS(=O)(=O)O)[C@@H]1OS(=O)(=O)O [Sucrose octasulfate, reference compound] | 43.5 ± 4.0 | weaker inhibitors | 
maltotriose sulfate [Maltotriose SO4] |  | more active than sulfated isomaltotriose | inhibition of cytotoxic effects of histones for HMEC ([1]; maltotriose sulfate 25 μg/ml): totally; inhibition of cytotoxic effects of histones for HMEC ([1]; maltotriose sulfate 100 μg/ml): partially; survival (Kaplan-Meier) [3, 5]: extended survival; tolerability [3, 6]: better tolerated; tolerability [3, 7]: appeared to produce some toxicity (cluster of deaths) after the third dose
raffinose sulfate [Raffinose SO4] |  | more active than sulfated isomaltotriose | 
Propanyl bis-gluconamide SO4 | 27.8 ± 1.5 | some inhibitory activity | 
β-cyclodextrin sulfate [β-cyclodextrin SO4] |  | active | inhibitory activity on histone cytotoxicity for HUVEC (in words) [4]: almost as active as the linear maltotriose sulfate and maltopentaose sulfate
low molecular weight heparin [reference compound] |  | active | 
sodium maltohexaose sulfate |  |  | accumulation of radiolabelled histones in the lung [2]: blocked
panose sulfate [Panose SO4] |  | more active than sulfated isomaltotriose | 
sodium maltotetraose sulfate |  |  | accumulation of radiolabelled histones in the lung [2]: blocked
Heparin [reference compound] |  | active | survival (Kaplan-Meier) ([3]; 1.1 mg/kg i.p. daily x3, LPS 50 mg/kg): no apparent change in the survival plot compared to the control; tolerability ([3]; 1.1 mg/kg i.p. daily x3, with LPS): well tolerated

From patent US9226939B2, “Histone inhibition” (THE AUSTRALIAN NATIONAL UNIVERSITY, priority 2010, dated 2016)
